{"source": "paper PMC2727864", "about": "(Molecular cancer therapeutics, 2008)", "key": {"phospho-Ser473 AKT [1]": {"test_system": "phospho-Ser473 AKT", "test": "Inhibition of phospho-Ser473 AKT by Western analysis in NIH3T3 cells", "assay_type": "cell-based", "settings": "Mus musculus, NIH3T3, read-out: AKT inhibition (IC50) NIH3T3"}, "phospho-Ser473 AKT [2]": {"test_system": "phospho-Ser473 AKT", "test": "Inhibition of phospho-Ser473 AKT by Western analysis in HT-29 cells", "assay_type": "cell-based, human"}, "LogP": {"test": "LogP", "assay_type": "physicochemical"}, "[3]": {"test": "Metabolic stability, incubation with HT-29 cells in DMEM at 37°C", "assay_type": "in vitro ADME", "settings": "human"}, "Solubility": {"test": "Solubility", "assay_type": "physicochemical"}, "phospho-Ser241 PDK1": {"test_system": "phospho-Ser241 PDK1", "test": "Phospho-Ser241 PDK1 Western analysis in HT-29 cells", "assay_type": "cell-based, human", "settings": "HT-29, 2 hr, EGF stimulated, Western blot"}, "phospho-(pan)-PKC": {"test_system": "phospho-(pan)-PKC", "test": "Phospho-", "assay_type": "cell-based, human", "settings": "HT-29, 2 hr, EGF stimulated, Western blot"}, "[4]": {"test": "Pharmacokinetic study, plasma concentration in mice", "assay_type": "in vivo, mouse"}, "Toxicity studies in mice": {"test": "Toxicity studies in mice", "assay_type": "in vivo, mouse"}, "[5]": {"test_system": "HT-29 colon cancer xenografts", "test": "Anti-tumor activity, HT-29 colon cancer xenografts in scid mice", "assay_type": "in vivo, mouse", "settings": "orally daily for 5 days at 250 mg/kg"}, "tumor phospho-Ser473 AKT": {"test_system": "tumor phospho-Ser473 AKT", "test": "Pharmacodynamic study, tumor phospho-Ser473 AKT in HT-29 xenografts", "assay_type": "in vivo, mouse"}, "[6]": {"settings": "five daily doses at 250 mg/kg ip"}, "[7]": {"settings": "24 hr after a single dose 250 mg/kg"}}, "note": "Values joined by “and” are separate entries in the source; they are usually repeats but may differ in a detail not shown here. Identical values can stand only once.", "data": [{"compound": "CC1=NN(C(=O)c2ccc(Cl)cc2)C(=O)C1N=Nc1ccc(S(=O)(=O)Nc2ncccn2)cc1", "note": "(centres unmarked) [Compound 1, 4-[1-(4-Chlorobenzoyl)-3-methyl-5-oxo-4,5-dihydro-1H-pyrazol-4-ylazo]-N-pyrimidin-2-yl-benzenesulfonamide]", "values": [{"measurement": "IC50", "setting": "phospho-Ser473 AKT [1]", "value": 4, "unit": "µM"}, {"measurement": "AKT phosphorylation, concentration response", "setting": "phospho-Ser473 AKT [2]; HT-29, 2 hr, EGF stimulated, Western blot", "value": "decreased in a concentration-dependent manner"}, {"measurement": "IC50", "setting": "phospho-Ser473 AKT [2]; Homo sapiens, HT-29, read-out: AKT inhibition (IC50) HT-29", "value": 13, "unit": "µM"}, {"measurement": "logP", "setting": "LogP", "value": 2.1}, {"measurement": "half-life", "setting": "[3]", "value": 1.03, "unit": "h"}, {"measurement": "solubility", "setting": "Solubility", "value": "very insoluble and 17.9 µM"}, {"measurement": "phosphorylation of PDK", "setting": "phospho-Ser241 PDK1", "value": "decreased"}, {"measurement": "phosphorylation of PKC", "setting": "phospho-(pan)-PKC", "value": "decreased"}, {"measurement": "peak plasma concentration, ip", "setting": "[4]; single dose 250 mg/kg ip", "value": 1.4, "unit": "µM"}, {"measurement": "peak plasma concentration, oral", "setting": "[4]; single dose 250 mg/kg oral", "value": 0.6, "unit": "µM"}, {"measurement": "body weight, blood lymphocyte, red blood cell and platelet count, AST, ALT", "setting": "Toxicity studies in mice; [6]", "value": "no change"}, {"measurement": "neutropenia", "setting": "Toxicity studies in mice; [6]", "value": "moderate neutropenia"}, {"measurement": "toxicity, single dose", "setting": "Toxicity studies in mice; single dose up to 250 mg/kg, ip, mice", "value": "no toxicity"}, {"measurement": "anti-tumor activity", "setting": "[5]", "value": "no activity"}, {"measurement": "inhibition of tumor phospho-Ser473 AKT at 4 hr", "setting": "tumor phospho-Ser473 AKT; 4 hr after a single dose 250 mg/kg", "value": "small inhibition"}, {"measurement": "inhibition of tumor phospho-Ser473 AKT at 24 hr", "setting": "tumor phospho-Ser473 AKT; [7]", "value": "no inhibition"}, {"measurement": "total AKT in tumor compared to actin loading control", "setting": "tumor phospho-Ser473 AKT; [7]", "value": "significant decrease"}]}]}
